Data published in publication PMC4171615, “Discovery of selective inhibitors of Glutaminase-2, which inhibit mTORC1, activate autophagy and inhibit proliferation in cancer cells” (Oncotarget, 2014).

Experiments:
human GAB = biological target: T1, human GAB (Homo sapiens, UniProt Q9UI32); assay: Two-step glutaminase activity assay, purified recombinant GAB; assay type: biochemical; conditions: recombinant wild-type GAB, absence of phosphate
T1 construct: Equivalent construct of GAB (Pro56-Val602) was amplified from the cDNA clone; His-tag (N); made in house; host or cells: Escherichia coli C41(DE3)pLysS
T1 sequence (Q9UI32 56-602): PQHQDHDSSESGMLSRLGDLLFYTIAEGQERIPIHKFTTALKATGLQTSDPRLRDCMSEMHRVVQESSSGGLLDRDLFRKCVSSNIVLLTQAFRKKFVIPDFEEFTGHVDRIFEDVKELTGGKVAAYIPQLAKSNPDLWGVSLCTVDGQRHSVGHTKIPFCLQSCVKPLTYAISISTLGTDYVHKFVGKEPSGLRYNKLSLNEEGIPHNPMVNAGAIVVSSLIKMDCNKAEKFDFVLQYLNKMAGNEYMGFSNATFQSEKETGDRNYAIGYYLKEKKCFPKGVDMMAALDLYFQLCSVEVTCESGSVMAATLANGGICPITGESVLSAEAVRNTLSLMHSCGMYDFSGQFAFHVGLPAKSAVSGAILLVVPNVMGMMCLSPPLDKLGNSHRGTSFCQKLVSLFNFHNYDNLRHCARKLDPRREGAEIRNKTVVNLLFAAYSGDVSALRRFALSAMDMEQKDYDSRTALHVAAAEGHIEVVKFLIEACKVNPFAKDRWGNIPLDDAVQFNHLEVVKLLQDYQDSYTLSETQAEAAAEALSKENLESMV
Procedure: Equivalent construct of GAB […]) was amplified from the cDNA clone MGC: 195512 IMAGE: 100066375 (Invitrogen Inc., USA). The sequences of the primers were: [NT] (BamHI) and [NT] (Notl). The resultant GAB-expression vector, pET28a(+)-GAB, was transformed into Escherichia coli strain […] Biotech Co., Taiwan). The expression protocol was followed as that protocol of KGA construct. The cells after induction were collected and resuspended in lysis buffer (50 mM Tris-HCl pH 8.5, 500 mM NaCl, 10% glycerol, and 10 mM β-ME) for sonication. […] His-tagged GAB was eluted with lysis buffer containing 200 mM imidazole. The eluted GAB was exchanged to 20 mM Tris-HCl (pH 8.0), 300 mM NaCl, 50% glycerol, and 2 mM dithiothreitol by using a PD-10 Desalting column (GE Healthcare). Human glutaminase activity was measured using a two-step assay as described previously. A microtiter assay format was used to facilitate the collection of multiple data points. […] Samples were incubated at 25°C for 10 min and then 10 μl of 200 mM glutamine were added to the reaction mix. After adding glutamine, the reactions were incubated at 37°C for 60 min and then quenched by the addition of 10 μl of 0.6 M HCl. Subsequently, 100 μl of a second reaction mixture (3.7 units of purified bovine liver glutamate dehydrogenase, 160 mM Tris/acetate [pH 9.4], 400 mM hydrazine, 5 mM ADP and 2 mM NAD^+) was added to the stopped first reaction mixture and incubated for 30 min at 25°C. The absorbance at 340 nm was measured using a Wallac Victor2V plate reader (PerkinElmer), fitted with a 340 nm excitation filter. Sample absorbance was measured against a blank, containing no human glutaminase. The kinetic constants Km and Vmax were determined by using Kaleida Graph software (Synergy Software) to calculate a non-linear least-squares fit for all the data points to the Michaelis-Menten equation.

human KGA = biological target: T2, human KGA (Homo sapiens, UniProt O94925); assay: Two-step glutaminase activity assay, purified recombinant KGA; assay type: biochemical; conditions: recombinant wild-type KGA, absence of phosphate
T2 construct: a KGA cDNA fragment of 1644 bp (residues Leu123-Leu669); His-tag (N); made in house; host or cells: Escherichia coli BL21(DE3)pLysS
T2 sequence (O94925 123-669): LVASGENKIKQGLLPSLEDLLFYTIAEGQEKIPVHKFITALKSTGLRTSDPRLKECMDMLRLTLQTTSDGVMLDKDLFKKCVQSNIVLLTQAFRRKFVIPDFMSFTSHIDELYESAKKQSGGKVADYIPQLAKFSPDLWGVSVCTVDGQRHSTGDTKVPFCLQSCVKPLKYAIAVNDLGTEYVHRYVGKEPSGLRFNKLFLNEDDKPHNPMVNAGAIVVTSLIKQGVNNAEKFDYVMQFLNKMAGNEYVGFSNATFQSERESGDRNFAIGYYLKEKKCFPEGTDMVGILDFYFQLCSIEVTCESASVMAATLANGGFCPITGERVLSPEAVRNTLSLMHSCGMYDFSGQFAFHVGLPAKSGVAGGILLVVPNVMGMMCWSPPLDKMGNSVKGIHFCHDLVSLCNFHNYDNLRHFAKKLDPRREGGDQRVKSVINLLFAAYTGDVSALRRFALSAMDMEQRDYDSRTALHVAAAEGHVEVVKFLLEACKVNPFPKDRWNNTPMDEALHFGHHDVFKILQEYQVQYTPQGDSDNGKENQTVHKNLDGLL
Procedure: The cDNA fragment of KGA digested with BamHI and NotI at each end was ligated into the pET28a(+) vector (Novagen) and expressed as a his-tag fusion. Escherichia coli strain BL21(DE3)pLysS was transformed with the resulting plasmid, pET28a(+)-KGA, and then cultured in Luria-Bertani broth medium in the presence of kanamycin. […] The cells were harvested by centrifugation at 10,000 rpm for 15 min at 4°C and resuspended in lysis buffer (5 mM Tris-HCl [pH 8.0], 50 mM NaH2PO4, 300 mM NaCl and 10 mM imidazole) for sonication. […] The eluted protein was exchanged to 20 mM Tris-HCl (pH 8.0), 300 mM NaCl, 10% glycerol, and 2 mM dithiothreitol by using a PD-10 Desalting column (GE Healthcare). The concentration of the purified protein was determined by use of the Bio-Rad protein assay reagent with a standard curve plotted against bovine serum albumin. […] A microtiter assay format was used to facilitate the collection of multiple data points. […] Samples were incubated at 25°C for 10 min and then 10 μl of 200 mM glutamine were added to the reaction mix. After adding glutamine, the reactions were incubated at 37°C for 60 min and then quenched by the addition of 10 μl of 0.6 M HCl. Subsequently, 100 μl of a second reaction mixture (3.7 units of purified bovine liver glutamate dehydrogenase, 160 mM Tris/acetate [pH 9.4], 400 mM hydrazine, 5 mM ADP and 2 mM NAD^+) was added to the stopped first reaction mixture and incubated for 30 min at 25°C. The absorbance at 340 nm was measured using a Wallac Victor2V plate reader (PerkinElmer), fitted with a 340 nm excitation filter. Sample absorbance was measured against a blank, containing no human glutaminase. The kinetic constants Km and Vmax were determined by using Kaleida Graph software (Synergy Software) to calculate a non-linear least-squares fit for all the data points to the Michaelis-Menten equation.

[1] = Carcinoma cell growth inhibition (cytotoxicity), A549; conditions: human, A549 lung carcinoma cells
Procedure: (§1) The cancer cell lines including HepG2 and A549 were obtained from American Type Culture Collection (Rockville, MD). The cells were cultured in DMEM medium with 10% FBS (v/v) and penicillin (100 units/ml)/ streptomycin (100 mg/ml). Cultures were maintained in a humidified incubator at 37°C in 5% CO2/95% air. Dulbecco's Modified Eagle Medium (DMEM), fetal bovine serum (FBS), penicillin, streptomycin, and all other tissue culture reagents were obtained from GIBCO/BRL Life Technologies (Grand Island, NY).
(§2) A549 lung carcinoma and HepG2 hepatocarcinoma cells were seeded at 4000 and 10000 cells/well respectively in 96-well plates, as previously described for cell growth inhibition assay [27, 44].

[2] = Carcinoma cell growth inhibition (cytotoxicity), HepG2; conditions: human, HepG2 hepatocarcinoma cells
Procedure: as §1, §2

in vitro [3] = conditions: human
Procedure: as §1, §2

in vitro [4] = conditions: human; remark: listed apart in the source
Procedure: as §1, §2

HepG2 cells = assay: Colony (focus) formation assay, HepG2; assay type: cell-based, human; conditions: HepG2, 21-day treatment
Procedure: A549 lung carcinoma and HepG2 hepatocarcinoma cells were seeded at 4000 and 10000 cells/well respectively in 96-well plates, as previously described for cell growth inhibition assay [27, 44]. To assess anchorage-dependent colony formation effect, the cells (1000 cells/well) were seeded in a six-well plate for 20-24 h prior to treatments of vehicle DMSO or compounds as indicated. Culture medium containing vehicle DMSO or compounds as indicated was changed twice a week. After a 21-day treatment, the cell colonies were rinsed with PBS, fixed in 3:1 ratio of methanol and acetic acid, stained with 0.05% crystal violet.

mTORC1 = assay: Western blot of mTORC1 components and downstream targets in HepG2 cells; assay type: cell-based, human; conditions: co-treatment with AV-1
Procedure: (§3) The cells were cultured in DMEM medium with 10% FBS (v/v) and penicillin (100 units/ml)/ streptomycin (100 mg/ml). Cultures were maintained in a humidified incubator at 37°C in 5% CO2/95% air. Dulbecco's Modified Eagle Medium (DMEM), fetal bovine serum (FBS), penicillin, streptomycin, and all other tissue culture reagents were obtained from GIBCO/BRL Life Technologies (Grand Island, NY). Antibodies to GAPDH, caspase 3, LC3B, p-ULK1(S317), p-ULK1(S757), Beclin1, p-BCL2(S70), p70S6K, p-p70S6K(T389), 4E-BP1, α-tubulin, 4E-BP, p-4E-BP(S65), p-eIF4B(S422), mTOR, p-mTOR(S2481), p-mTOR(S2448), p-Raptor(S792), Tuberin, p-Tuberin(T1462), p-Tuberin(T1387), p-AMPK(T172) and p-AMPK(S108) were from Cell Signaling Technology; antibody to p-Beclin1(S15) was from Abbiotec; antibodies to KGA and Raptor were from Abcam; antibodies to BCL2 were from Upstate Biotechnology; antibodies to α-tubulin were from Chemicon International; antibodies to ULK1, β-tublin and AMPK were from GeneTex; antibodies to GAB were from abnova and Gene Tex; antibodies to GAC were from ProteinTech Group; antibodies to p-mTOR(S2446) and AMPK were from Millipore; anti-mouse and anti-rabbit IgGs were obtained from PerkinElmer. […] Compound C was obtained from Sigma–Aldrich (St. Louis, MO). Western blotting was performed as described [40].

AMPK = assay: Western blot of AMPK_ULK1 axis signaling in HepG2 cells; assay type: cell-based, human; conditions: co-treatment with AV-1
Procedure: as §3

| SMILES | IC50 (human GAB) | IC50 (human KGA) | CC50 [1] | CC50 [2] | also measured |
| --- | --- | --- | --- | --- | --- |
| CCCCCCCC/C=C\CCCCCCCc1cc(O)cc(O)c1 [AK-1] | 2.9 ± 0.6 µM | 73 ± 3 µM | – | – | – |
| CCCCCCCC/C=C\CCCCCCCc1cc(O)c(C)c(O)c1 [AK-3] | 2.7 µM | 76.9 ± 0.8 µM | – | – | – |
| CCCCCC/C=C\CCCCCCCc1cc(O)c(C)c(O)c1 [AK-4] | – | 59.8 ± 4.6 µM | – | – | – |
| COc1cc(O)cc(CCCCCCC/C=C\CCCCCCCc2cc(O)c(C)c(O)c2)c1 [AK-5] | 2.3 ± 0.4 µM | 70 ± 1.6 µM | – | – | – |
| COc1cc(O)cc(CCCCC/C=C\CCCCCCCc2cc(O)c(C)c(O)c2)c1 [AK-6] | 2.5 ± 0.3 µM | 36.7 ± 3.2 µM | – | – | – |
| Cc1c(O)cc(CCCCCCC/C=C\CCCCCCCc2cc(O)c(C)c(O)c2)cc1O [AK-7] | 2.9 ± 0.8 µM | 17.5 ± 2.6 µM | > 100 µM | > 100 µM | – |
| Cc1c(O)cc(CCCCC/C=C\CCCCCCCc2cc(O)c(C)c(O)c2)cc1O [AK-8] | 3.1 ± 0.5 µM | 13.9 ± 1.5 µM | – | – | – |
| Cc1c(O)cc(CCCCCCC/C=C\CCCCCCCc2cc(O)cc(O)c2)cc1O [AK-9] | 2.3 ± 0.5 µM | 11.9 ± 1.2 µM | – | – | – |
| Cc1c(O)cc(CCCCCCC/C=C\CCCCCc2cc(O)cc(O)c2)cc1O [AK-10] | 2.1 ± 0.1 µM | 11.7 ± 1.3 µM | – | – | – |
| COc1cc(O)cc(CCCCCCC/C=C\CCCCCCCc2cc(O)cc(O)c2)c1 [AK-11] | 2.9 ± 0.5 µM | 13.4 ± 2.2 µM | – | – | – |
| COc1cc(O)cc(CCCCCCC/C=C\CCCCCc2cc(O)cc(O)c2)c1 [AK-12] | 2.9 ± 0.6 µM | 9.6 ± 1.2 µM | > 100 µM | 84.6 ± 2.3 µM | – |
| CCCCCCCCCCCCCC(CC1=C(O)C(=O)C=C(OC)C1=O)OC(C)=O (centres unmarked) [AV-3] | 25.1 ± 4.5 µM | – | > 50 µM | > 50 µM | – |
| CCCCCCCCCCCC(CC1=C(O)C(=O)C=C(OC)C1=O)OC(C)=O (centres unmarked) [AV-4] | – | – | > 50 µM | > 50 µM | – |
| CCCCCCCCCCCCCC1=C(O)C(=O)C=C(OC)C1=O [AV-7] | – | – | – | – | CC50 (in vitro [3]): > 50 µM; CC50 (in vitro [4]): > 50 µM |
| CCCCCCCCCCCC(Cc1cc(O)cc(OC)c1O)OC(C)=O (centres unmarked) [AV-8] | – | – | 11.6 ± 0.4 µM | 18.8 ± 0.7 µM | – |
| CCCCCCCCCCCC(Cc1cc(OC(C)=O)cc(OC)c1O)OC(C)=O (centres unmarked) [AV-9] | 31.7 ± 6.7 µM | – | 13 ± 2.1 µM | 13.7 ± 2.2 µM | – |
| CCCCCCCCCCCC(Cc1c(O)c(OC)cc(O)c1C=O)OC(C)=O (centres unmarked) [AV-10] | 23.1 ± 4.9 µM | – | 22.1 ± 1.6 µM | 21.2 ± 0.8 µM | – |
| CCCCCCCCCCCCCC(Cc1cc(OC(C)=O)cc(OC)c1O)OC(C)=O (centres unmarked) [AV-11] | 5.7 ± 1.1 µM | 69 ± 3.1 µM | 5 ± 0.8 µM | 5.2 ± 0.3 µM | – |
| CCCCCCCCCCCCCC(O)Cc1cc(O)cc(OC)c1 (centres unmarked) [AV-12] | 7.6 ± 2 µM | 52.4 ± 15.5 µM | > 50 µM | > 50 µM | – |
| CCCCCCCc1cc(O)cc(OC)c1 [AV-13] | – | 52.7 ± 2.7 µM | 35.5 ± 2.6 µM | 36.9 ± 2 µM | – |
| CCCCCCCCCCCCCC(=O)Cc1cc(O)cc(OC)c1OC(C)=O [AV-14] | 4.7 ± 1.3 µM | 41 ± 5.2 µM | > 50 µM | > 50 µM | – |
| O=C(Cc1ccccc1)Nc1nnc(CCSCCc2nnc(NC(=O)Cc3ccccc3)s2)s1 [BPTES] | – | – | – | – | IC50 (HepG2 cells): 2.8 ± 0.4 µM |
| [N-]=[N+]=CC(=O)CC[C@H](N)C(=O)O [DON, reference compound] | – | 59.9 ± 8.8 µM | – | – | – |
| c1cc(-c2cnn3cc(-c4ccc(OCCN5CCCCC5)cc4)cnc23)ccn1 [compound C] | – | – | – | – | Effect on AV-1 induced phosphorylation of Raptor at Ser792 and Tuberin at Ser1387 (mTORC1): attenuated; Effect on the AV-1 decreased phosphorylation of ULK1 Ser757 (AMPK): reversed |
